Source: ChEMBL document CHEMBL4483862, “Open-source discovery of chemical leads for next-generation chemoprotective antimalarials” (2018)

Tested on: Plasmodium berghei
Test: Luciferase/luciferin-expressing antifolate-resistant parasites were used to infect a culture of HepG2 cells that were pre-incubated with compounds. Infected hepatocytes emit light due to the luciferase reaction. Assay results are presented as the percent inhibition of light emission compared to control. […]
Format: functional
Details: sporozoite; for IC90: read-out: LUCIFERASE INFECTION ASSAY - IC90
[1] = read-out: LUCIFERASE INFECTION ASSAY - IC50

**Q.** What does the source list for C=CCSc1nnc(-c2ccc(C(C)(C)C)cc2)n1-c1ccc(Cl)cc1?
**A.** IC50 (PBLUC_HILL_SLOPE 0.788, PBLUC_R_SQUARED 0.735, read-out: LUCIFERASE INFECTION ASSAY - IC50): > 8.59 µM; IC90: > 8.59 µM

**Q.** For COc1ccc(-c2nc(NC(=O)c3cnc(C)cn3)sc2C)cc1, which IC50 [1] is on record?
**A.** The IC50 was > 10 µM.

**Q.** And the IC90?
**A.** Its IC90 is > 10 µM.

**Q.** What does the source list for Cc1nc(NC(=O)c2cnn(C)c2)sc1Cc1ccccc1Cl?
**A.** IC50 (HEPG2TOX_HILL_SLOPE 2.29, HEPG2TOX_R_SQUARED 0.901, PBLUC_HILL_SLOPE 11.8, PBLUC_R_SQUARED 0.668, read-out: LUCIFERASE INFECTION ASSAY - IC50): 2.74 µM; IC90: 3.3 µM

**Q.** Which IC50 [1] does the source give for CCS(=O)(=O)c1ccc2oc(NC(=O)C3CCC3)nc2c1 here?
**A.** Its IC50 is > 10 µM.

**Q.** What about the IC90 of the same compound?
**A.** The IC90 was > 10 µM.

**Q.** With Cc1ccc(NC(=O)NC(=O)c2c(-c3snnc3C)noc2C)cc1 as the compound, how does the IC50 (HEPG2TOX_HILL_SLOPE 1.11, HEPG2TOX_R_SQUARED 0.954, PBLUC_HILL_SLOPE 1.54, PBLUC_R_SQUARED 0.355, read-out: LUCIFERASE INFECTION ASSAY - IC50) read?
**A.** Its IC50 is 2.53 µM.

**Q.** And the IC90?
**A.** The IC90 was > 9.23 µM.

**Q.** What does the source list for Cc1cc(C(=O)C(C)Sc2nnnn2C2CC2)c(C)n1-c1ccccc1 (stereo unspecified)?
**A.** IC50 (PBLUC_HILL_SLOPE 0.896, PBLUC_R_SQUARED 0.762, read-out: LUCIFERASE INFECTION ASSAY - IC50): 0.623 µM; IC90: 7.24 µM

**Q.** How did the IC50 (HEPG2TOX_HILL_SLOPE 7.91, HEPG2TOX_R_SQUARED 0.667, PBLUC_HILL_SLOPE 4.16, PBLUC_R_SQUARED 0.739, read-out: LUCIFERASE INFECTION ASSAY - IC50) turn out when Oc1ccc(-c2cn3c(-c4ccc(Cl)cc4)cnc3cn2)cc1 was run?
**A.** Its IC50 is 3.32 µM.

**Q.** And the IC90?
**A.** Its IC90 is 5.63 µM.

**Q.** How did the IC50 [1] turn out when Cc1csc2nc(COC(=O)c3ccc(-c4nc5ccccc5s4)o3)cc(=O)n12 was run?
**A.** Its IC50 is > 10 µM.

**Q.** What about the IC90 of the same compound?
**A.** The IC90 was > 10 µM.

**Q.** How did the IC50 (PBLUC_HILL_SLOPE 14.5, PBLUC_R_SQUARED 0.0793, read-out: LUCIFERASE INFECTION ASSAY - IC50) turn out when COCCOc1ccc(C(F)(F)F)cc1NC(=O)c1ccc(SCc2cscn2)cc1 was run?
**A.** Its IC50 is 8.84 µM.

**Q.** What about the IC90 of the same compound?
**A.** The IC90 was > 10 µM.

**Q.** How did the IC50 (PBLUC_HILL_SLOPE 0.184, PBLUC_R_SQUARED 0.0602, read-out: LUCIFERASE INFECTION ASSAY - IC50) turn out when O=C(Nc1ccc(Cl)cc1)OCc1nccn1Cc1ccc(Cl)cc1 was run?
**A.** The IC50 was > 8.77 µM.

**Q.** And the IC90?
**A.** The IC90 was > 8.77 µM.

**Q.** How did the IC50 [1] turn out when N#C/C(=N\Nc1ccc(F)c(Cl)c1)C(=O)c1ccc(Cl)cc1 was run?
**A.** Its IC50 is 1.07 µM.

**Q.** What about the IC90 of the same compound?
**A.** The IC90 was 1.26 µM.

**Q.** Which results are given for COc1cc(C(=O)N(C)C(c2ccccc2)c2ccccc2)ccc1OCC(C)C?
**A.** IC50 (FFLUC_HILL_SLOPE 13.6, FFLUC_R_SQUARED 0.558, HEPG2TOX_HILL_SLOPE 7.8, HEPG2TOX_R_SQUARED 0.217, read-out: LUCIFERASE INFECTION ASSAY - IC50): > 10 µM; IC90: > 10 µM

**Q.** O=C1C=CC(=O)N1c1cccc(Cl)c1 was tested. Which IC50 [1] did it give?
**A.** Its IC50 is > 15.9 µM.

**Q.** And the IC90?
**A.** The IC90 was > 15.9 µM.

**Q.** Which IC50 (FFLUC_HILL_SLOPE 13.1, FFLUC_R_SQUARED 0.176, read-out: LUCIFERASE INFECTION ASSAY - IC50) does the source give for N=C1C(=S)N(c2ccc(Cl)c(Cl)c2)C(=O)N1c1ccc(OC(F)(F)F)cc1 here?
**A.** The IC50 was > 7.6 µM.

**Q.** And the IC90?
**A.** Its IC90 is > 7.6 µM.

**Q.** Which IC50 [1] does the source give for O=C(c1cn(-c2ccccc2)nc1-c1cc2ccccc2oc1=O)n1nnc2ccccc21 here?
**A.** The IC50 was 3.27 µM.

**Q.** What about the IC90 of the same compound?
**A.** Its IC90 is 3.36 µM.

**Q.** What does the source list for CN(C)c1cccc(-c2ccc3ncc(-c4ccoc4)n3n2)c1?
**A.** IC50 (PBLUC_HILL_SLOPE 19.8, PBLUC_R_SQUARED 0.226, read-out: LUCIFERASE INFECTION ASSAY - IC50): 8.49 µM; IC90: 9.49 µM

**Q.** Which IC50 (PBLUC_HILL_SLOPE 9.7, PBLUC_R_SQUARED 0.271, read-out: LUCIFERASE INFECTION ASSAY - IC50) does the source give for CC(C)(C)c1ccccc1NC(=O)Nc1nc(C(N)Cc2ccc(C(F)(F)F)cc2)cs1 (stereo unspecified) here?
**A.** Its IC50 is 2.74 µM.

**Q.** What about the IC90 of the same compound?
**A.** The IC90 was 3.44 µM.

**Q.** Which IC50 (FFLUC_HILL_SLOPE 1.52, FFLUC_R_SQUARED 0.0983, PBLUC_HILL_SLOPE 1.97, PBLUC_R_SQUARED 0.288, read-out: LUCIFERASE INFECTION ASSAY - IC50) does the source give for CSc1nnnn1-c1cccc(NC(=O)c2cc(-c3cc(C)oc3C)nc3c2cnn3C(C)C)c1 here?
**A.** The IC50 was 5.3 µM.

**Q.** And the IC90?
**A.** The IC90 was > 10 µM.

**Q.** With COc1ccc(S(=O)(=O)N2CCN(CC(=O)N3CCCCCC3)CC2)cc1 as the compound, how does the IC50 [1] read?
**A.** Its IC50 is > 10 µM.

**Q.** And the IC90?
**A.** Its IC90 is > 10 µM.

**Q.** For O=[N+]([O-])c1cc(C(F)(F)F)ccc1N/N=C1\CCCCC1CCS(=O)(=O)c1ccc(Cl)cc1 (stereo unspecified), which IC50 [1] is on record?
**A.** The IC50 was > 6.55 µM.

**Q.** And the IC90?
**A.** The IC90 was > 6.55 µM.

**Q.** What does the source list for Fc1ccc(CN2CCN(Cc3ccco3)CC2)cc1?
**A.** IC50 [1]: > 12 µM; IC90: > 12 µM

**Q.** What does the source list for COc1cc(-c2nccc3n[nH]c(-c4cccc(OC(F)(F)F)c4)c23)cc(OC)c1OC?
**A.** IC50 [1]: > 10 µM; IC90: > 10 µM

**Q.** Which IC50 (HEPG2TOX_HILL_SLOPE 6.81, HEPG2TOX_R_SQUARED 0.677, read-out: LUCIFERASE INFECTION ASSAY - IC50) does the source give for Cc1ccc(CSc2nnc(NCc3ccccc3)s2)cc1 here?
**A.** The IC50 was > 10 µM.

**Q.** What about the IC90 of the same compound?
**A.** The IC90 was > 10 µM.

**Q.** With O=C(NCc1ccccc1)/C(=C/c1cn(-c2ccccc2)nc1-c1cccs1)c1nc2ccccc2[nH]1 as the compound, how does the IC50 (PBLUC_HILL_SLOPE 3.73, PBLUC_R_SQUARED 0.245, read-out: LUCIFERASE INFECTION ASSAY - IC50) read?
**A.** Its IC50 is 5.45 µM.

**Q.** What about the IC90 of the same compound?
**A.** The IC90 was 9.82 µM.

**Q.** Which results are given for Clc1cccc(-c2cnc3sc(NCCc4ccncc4)nn23)c1?
**A.** IC50 (HEPG2TOX_HILL_SLOPE 2.13, HEPG2TOX_R_SQUARED 0.945, PBLUC_HILL_SLOPE 2.85, PBLUC_R_SQUARED 0.464, read-out: LUCIFERASE INFECTION ASSAY - IC50): 5.6 µM; IC90: > 9.27 µM

**Q.** Clc1ccc2c(NCc3ccc(CN4CCOCC4)cc3)ccnc2c1 was tested. Which IC50 (HEPG2TOX_HILL_SLOPE 2.51, 1.28, HEPG2TOX_R_SQUARED 0.778, 0.972, PBLUC_HILL_SLOPE 2.92, 9.52, PBLUC_R_SQUARED 0.401, 0.159, read-out: LUCIFERASE INFECTION ASSAY - IC50) did it give?
**A.** The IC50 was 4.34 µM.

**Q.** What about the IC90 of the same compound?
**A.** The IC90 was 4.14 µM.

**Q.** Which IC50 (HEPG2TOX_HILL_SLOPE 11.8, HEPG2TOX_R_SQUARED 0.0956, PBLUC_HILL_SLOPE 13.2, PBLUC_R_SQUARED 0.651, read-out: LUCIFERASE INFECTION ASSAY - IC50) does the source give for CC1CCCC(C)N1CC(O)COC1CCC(C(C)(C)C)CC1 (stereo unspecified) here?
**A.** The IC50 was 3.06 µM.

**Q.** What about the IC90 of the same compound?
**A.** The IC90 was 3.62 µM.

**Q.** With CCOC(=O)c1c(S(=O)(=O)Nc2ccc(Cl)cc2)c(-c2ccccc2)n(-c2ccccc2)c1C as the compound, how does the IC50 [1] read?
**A.** Its IC50 is 4.84 µM.

**Q.** What about the IC90 of the same compound?
**A.** Its IC90 is > 6.67 µM.

**Q.** Which results are given for OCc1ccc(-c2cnc3cnc(-c4ccsc4)cn23)cc1?
**A.** IC50 (PBLUC_HILL_SLOPE 3.6, PBLUC_R_SQUARED 0.458, read-out: LUCIFERASE INFECTION ASSAY - IC50): 4.59 µM; IC90: 8.46 µM

**Q.** What does the source list for c1ccc(Nc2nc(-c3ccc4c(c3)CCC4)cs2)nc1?
**A.** IC50 (PBLUC_HILL_SLOPE 1.40, 0.464, PBLUC_R_SQUARED 0.303, 0.681, read-out: LUCIFERASE INFECTION ASSAY - IC50): 4.84 µM; IC90: > 10 µM

**Q.** Which results are given for Cc1nc(NC(=O)Cc2nn(C)c(=O)c3ccccc23)sc1-c1ccccn1?
**A.** IC50 (HEPG2TOX_HILL_SLOPE 1.36, HEPG2TOX_R_SQUARED 0.975, PBLUC_HILL_SLOPE 4.04, PBLUC_R_SQUARED 0.363, read-out: LUCIFERASE INFECTION ASSAY - IC50): 8.34 µM; IC90: > 10 µM

**Q.** Which results are given for Cc1ccc(-c2nc3nc(N)n(C)c(=O)c3[nH]c2=O)cc1?
**A.** IC50 [1]: > 10 µM; IC90: > 10 µM

**Q.** COc1cc(/C=C2\C=c3ccccc3=C2O)cc(Cl)c1OC(C)C was tested. Which IC50 [1] did it give?
**A.** Its IC50 is > 10 µM.

**Q.** And the IC90?
**A.** Its IC90 is > 10 µM.
